Reference: the NIST ThermoML archive (doi:10.1016/j.jct.2017.07.019)
Numbers after ± are expanded uncertainties. Blank lines part the entries; values can stand above or below the compound they belong to.

Conditions: Liquid, Ebulliometric method (Recirculating still)

Structure (SMILES): Cc1ccc(C)cc1 [1,4-dimethylbenzene]
vapor or sublimation pressure (411.45 K): 101.3 ± 0.7 kPa

vapor or sublimation pressure (382.15 K): 101.3 ± 0.6 kPa
Structure (SMILES): OCC(F)(F)C(F)F [2,2,3,3-tetrafluoro-1-propanol]

vapor or sublimation pressure (334.35 K): 101.3 ± 0.7 kPa
Structure (SMILES): ClC(Cl)Cl [trichloromethane]

vapor or sublimation pressure (373.05 K): 101.3 ± 0.6 kPa
Structure (SMILES): O [water]
